Columns and labels:
Experiment in all cases: cells
Set-up in all cases: growth inhibition of A375 parental and resistant melanoma cells, dose-response curves
Conditions in all cases: Homo sapiens, A-375, 96 h; read-out: Phendione IC50
[1] = system: A375 BRAFi resistant
Description: (§1) Figure 2. Phendione is a small molecule inhibitor targeting PP2A. (A) Immunoblots of A375 cell lysates collected after 3 h of drug treatment as indicated; i.e., increasing concentrations of LB100 compared with 0.2 µM phendione (left) and increasing concentrations of phendione compared with 3 µM pyrene (right). DMSO was used as negative control (vehicle). (B) Growth inhibition curves of A375 cells and IC50 values after treatment with phendione or LB100 for 96 h. Data are presented as mean ± SD of three independent experiments. (C) Phosphatase activity assay for PP2A core enzyme (complex of regulatory subunit Aα and catalytic subunit Cα; top), PP1 catalytic subunit Cα (middle) and PP1 catalytic subunit Cβ (bottom) incubated with phendione or pyrene at indicated concentrations. […] IC50s (micromolar) were calculated and is shown as an inset in each graph. […] (G) Quantification of cell apoptosis measured by Annexin V staining flow cytometry. Parental A375 and A375 BRAFi-resistant cells were treated with vehicle or increasing concentration of phendione as indicated in the panels for 24 h before apoptotic cells were measured by flow cytometry. […] Representative images are shown at the left and quantification results are shown at the right. […] (I,J) Quantification of reactive oxygen species (ROS) production measured by flow cytometry in A375 (I) and A375 BRAFi-resistant (J) cells. […]

[2] = system: A375
Description: as §1

[3] = system: A375 BRAFi + MEKi resistant

Work on `O=C1C(=O)c2cccnc2-c2ncccc21` [phendione, 1,10-phenanthroline-5,6-dione] yielded an IC50 [1] of 113 nM, an IC50 [2] of 94 nM and an IC50 [3] of 119 nM.
